Experimental data: the supplement of paper PMC11208160

experiment: recombinant UMI read abundance after kanamycin selection (control-corrected) (log10(CPM+1)); higher = more efficient recombination; extreme values may be limits of the assay; sequences stand for … in AGTGCAGAGAAAATCGGCCAGTTTTCTCTGCCTGCAGTCCGCATGCCGTGGGACCCCTTGGGTTCTAACCTGTTGCCTAGATTTATGCAGCGGACTGCCTTTCTCCCAAAGTGATAAACCGG…AGGTTGGTTTCACT; site = the 11-nt donor
Outline: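 Sequenced counts of recombinant UMIs were turned into CPM, averaged across replicates and scaled with control-derived factors. The reported figure is log10(CPM+1). Those UMIs, each 12 nt long, tagged donor and donor-binding-loop pairs on a plasmid with a promoterless kanamycin gene, screened as a pool in Escherichia coli with IPTG (0.07 mM) plus kanamycin or without selection.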
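Note: IS621 bridge recombinase in Escherichia coli cells against a fixed T5 target plasmid.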

Row | Sequence | recombinant UMI read abundance (log10)
1 | CCGTCTACATGGACCGGTTTTCCCGGTAATCCGTATTTGCT (site CCGTATACTAG) | 0
2 | CCGTCTACATGGACCGGTTTTCCCGGTAATCCGTATTTGCT (site CCGTCTACTAG) | 0.223
3 | CCGTCTACATGGACCGGTTTTCCCGGTAATCCGTATTTGCT (site CCGTGTACTAG) | 0
4 | CCGTCTACATGGACCGGTTTTCCCGGTAATCCGTATTTGCT (site CCGTTTACTAG) | 0
5 | CCGTTACCATGGACCGGTTTTCCCGGTAATCCGTATTTGTG (site CCGTTAACTCA) | 0.00404
6 | CCGTTACCATGGACCGGTTTTCCCGGTAATCCGTATTTGTG (site CCGTTACCTCA) | 0.0136
7 | CCGTTACCATGGACCGGTTTTCCCGGTAATCCGTATTTGTG (site CCGTTAGCTCA) | 0.0116
8 | CCGTTACCATGGACCGGTTTTCCCGGTAATCCGTATTTGTG (site CCGTTATCTCA) | 0
9 | CCGTTAGCATGGACCGGTTTTCCCGGTAATCCGTATTTGCG (site CCGTTAGCTCA) | 0
10 | CCGTTAGCATGGACCGGTTTTCCCGGTAATCCGTATTTGCG (site CCGTTAGCTCC) | 0
11 | CCGTTAGCATGGACCGGTTTTCCCGGTAATCCGTATTTGCG (site CCGTTAGCTCG) | 0.184
12 | CCGTTAGCATGGACCGGTTTTCCCGGTAATCCGTATTTGCG (site CCGTTAGCTCT) | 0.0063
13 | CCGTTCACATGGACCGGTTTTCCCGGTAATCCGTATTTGCT (site CCGTTAACTAG) | 0
14 | CCGTTCACATGGACCGGTTTTCCCGGTAATCCGTATTTGCT (site CCGTTCACTAG) | 0.726
15 | CCGTTCACATGGACCGGTTTTCCCGGTAATCCGTATTTGCT (site CCGTTGACTAG) | 0
16 | CCGTTCACATGGACCGGTTTTCCCGGTAATCCGTATTTGCT (site CCGTTTACTAG) | 0
17 | CCGTTTACATGGACCGGTTTTCCCGGTAATCCGTATTTGCA (site CCGTTTACTAG) | 0
18 | CCGTTTACATGGACCGGTTTTCCCGGTAATCCGTATTTGCA (site CCGTTTACTCG) | 0
19 | CCGTTTACATGGACCGGTTTTCCCGGTAATCCGTATTTGCA (site CCGTTTACTGG) | 0

Row | Sequence | recombinant UMI read abundance (log10)
20 | CCGTTTACATGGACCGGTTTTCCCGGTAATCCGTATTTGCA (site CCGTTTACTTG) | 0
21 | CCGTTTACATGGACCGGTTTTCCCGGTAATCCGTATTTGCG (site CCGTTTACTAG) | 0
22 | CCGTTTACATGGACCGGTTTTCCCGGTAATCCGTATTTGCG (site CCGTTTACTCG) | 0.0437
23 | CCGTTTACATGGACCGGTTTTCCCGGTAATCCGTATTTGCG (site CCGTTTACTGG) | 0
24 | CCGTTTACATGGACCGGTTTTCCCGGTAATCCGTATTTGCG (site CCGTTTACTTG) | 0
25 | CCGTTTGCATGGACCGGTTTTCCCGGTAATCCGTATTTGTG (site CCGTTAGCTCA) | 0.00545
26 | CCGTTTGCATGGACCGGTTTTCCCGGTAATCCGTATTTGTG (site CCGTTCGCTCA) | 0.0182
27 | CCGTTTGCATGGACCGGTTTTCCCGGTAATCCGTATTTGTG (site CCGTTGGCTCA) | 0.0153
28 | CCGTTTGCATGGACCGGTTTTCCCGGTAATCCGTATTTGTG (site CCGTTTGCTCA) | 0
29 | CCTAAAGCATGGACCGGTTTTCCCGGTAATCCGTATTTGAG (site CCTAAAGCTAT) | 0
30 | CCTAAAGCATGGACCGGTTTTCCCGGTAATCCGTATTTGAG (site CCTAAAGCTCT) | 0.599
31 | CCTAAAGCATGGACCGGTTTTCCCGGTAATCCGTATTTGAG (site CCTAAAGCTGT) | 0
32 | CCTAAAGCATGGACCGGTTTTCCCGGTAATCCGTATTTGAG (site CCTAAAGCTTT) | 0
33 | CCTAAAGCATGGACCGGTTTTCCCGGTAATCCGTATTTGCT (site CCTAAAGCTAA) | 0.00467
34 | CCTAAAGCATGGACCGGTTTTCCCGGTAATCCGTATTTGCT (site CCTAAAGCTAC) | 0
35 | CCTAAAGCATGGACCGGTTTTCCCGGTAATCCGTATTTGCT (site CCTAAAGCTAG) | 0
36 | CCTAAAGCATGGACCGGTTTTCCCGGTAATCCGTATTTGCT (site CCTAAAGCTAT) | 0
37 | CCTAAATCATGGACCGGTTTTCCCGGTAATCCGTATTTGCA (site CCTAAATCTTG) | 0
38 | CCTAAGTCATGGACCGGTTTTCCCGGTAATCCGTATTTGCA (site CCTAAGTCTTG) | 0
